Experimental data as given in patent US20230096028A1, “BICYCLIC HETEROCYCLYL COMPOUNDS AND USES THEREOF” (Revolution Medicines, Inc., priority 2019, published 2023).
Like-named read-outs stand apart in the source and are kept apart here.

What was measured:
[1] = target: T1, SOS1 catalytic domain (residues 564-1049) (Homo sapiens, UniProt Q07889); assay: Potency Assay: binding affinity to SOS1 using Surface Plasmon Resonance (SPR); set-up: SOS1 catalytic domain (residues 564-1049) immobilized on a sensor chip; conditions: immobilized SOS1 catalytic domain (residues 564-1049), read-out: SOS1 SPR Equilibrium Kd
T1 sequence (Q07889 564-1049): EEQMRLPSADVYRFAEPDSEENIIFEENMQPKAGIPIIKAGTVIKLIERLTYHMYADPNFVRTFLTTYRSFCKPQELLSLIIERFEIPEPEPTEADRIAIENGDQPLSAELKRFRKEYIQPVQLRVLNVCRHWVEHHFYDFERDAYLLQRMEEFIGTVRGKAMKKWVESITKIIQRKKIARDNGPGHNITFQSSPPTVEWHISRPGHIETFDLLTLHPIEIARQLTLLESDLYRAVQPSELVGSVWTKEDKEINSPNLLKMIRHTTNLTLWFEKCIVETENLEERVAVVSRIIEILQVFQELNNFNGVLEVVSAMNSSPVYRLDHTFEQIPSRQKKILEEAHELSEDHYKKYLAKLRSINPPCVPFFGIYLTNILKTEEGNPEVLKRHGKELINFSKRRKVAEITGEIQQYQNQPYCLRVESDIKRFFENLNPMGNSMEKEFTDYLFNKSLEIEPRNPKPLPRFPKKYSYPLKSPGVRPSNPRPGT
Method in brief: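 Avi-tagged SOS1 catalytic domain captured on streptavidin chip (~6000 RU) in 0.01 M HEPES, 0.15 M NaCl, 0.05% P20. Compound dilution series flowed at 50 μL/min for association, then buffer for dissociation, with double reference subtraction. Kd derived from end-of-association binding response plotted against concentration.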

[2] = target: T1, SOS1 catalytic domain (residues 564-1049); assay: Mode of Action Assay: inhibition of SOS1 nucleotide exchange activity (SOS1 TR-FRET IC50 Assay)
[3] = tested on: PC-9 cells (EGFR Ex19Del); assay: Potency Assay: pERK (SOS1 pERK IC50 Assay, AlphaLISA SureFire Ultra p-ERK1/2); assay type: cell-based; conditions: Homo sapiens, read-out: SOS1 pERK IC50
Method in brief: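 PC-9 (EGFR Ex19Del) cells plated overnight, then treated 1 h at 37° C. with 10-point 3-fold dilutions (top 10 μM final) in duplicate. Lysate pERK1/2 measured by AlphaLISA SureFire Ultra; IC50 from 4-parameter sigmoidal fit.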

[4] = PC-9 cells (EGFR Ex19Del), 1 hour incubation, AlphaLISA p-ERK1/2

| Kd [1] [nM] | IC50 [2] [nM] | IC50 [3, 4] [nM] | Compound | IC50 ([3]; PC-9, 1 h) [nM] |
| --- | --- | --- | --- | --- |
| > 400 | > 1000 | > 1000 | CC(Nc1nc(Cl)nc2c1CN(C(=O)N1CCOCC1)C2)c1cc(O)cc(C(F)(F)F)c1 (stereo not drawn) [Example 40, [2-chloro-4-[1-[3-hydroxy-5-(trifluoromethyl)phenyl]ethylamino]-5,7-dihydropyrrolo[3,4-d]pyrimidin-6-yl]-morpholino-methanone] | – |
| < 400 | < 1000 | < 1000 | C[C@@H](Nc1nc(Cl)nc2c1CN(S(=O)(=O)N1CCOCC1)C2)c1cc(N)cc(C(F)(F)F)c1 [Example 24, N-[(1R)-1-[3-amino-5-(trifluoromethyl)phenyl]ethyl]-2-chloro-6-morpholinosulfonyl-5,7-dihydropyrrolo[3,4-d]pyrimidin-4-amine] | – |
| < 400 | < 1000 | > 1000 | C[C@@H](Nc1nc(Cl)nc2c1CN(C(=O)N1CCCC13CCNC3)C2)c1cccc(C(F)F)c1F (stereo partly drawn) [Example 382] | – |
| < 400 | < 1000 | < 1000 | C[C@@H](Nc1nc(I)nc2c1CN(C(=O)N1CCOCC1)C2)c1cc(N)cc(C(F)(F)F)c1 [Example 134, N-[(1R)-1-[3-amino-5-(trifluoromethyl)phenyl]ethyl]-2-iodo-6-(morpholine-4-carbonyl)-5H,6H,7H-pyrrolo[3,4-d]pyrimidin-4-amine] | – |
| < 400 | < 1000 | < 1000 | C[C@@H](Nc1nc(Cl)nc2c1CN(C(=O)N1CCN(C)C(C(F)(F)F)C1)C2)c1cccc(C(F)F)c1F (stereo partly drawn) [Example 418] | – |
| < 400 | < 1000 | < 1000 | C[C@@H](Nc1nc(Cl)nc2c1CN(C(=O)[C@@H]1CNCCO1)C2)c1cccc(C(F)F)c1F [Example 303] | – |
| < 400 | < 1000 | < 1000 | C[C@@H](Nc1nc(Cl)nc2c1CN(C(=O)N1CCNC(C(F)(F)F)C1)C2)c1cccc(C(F)F)c1F (stereo partly drawn) [Example 387] | – |
| < 400 | < 1000 | < 1000 | C[C@@H](Nc1nc(Cl)nc2c1CN(S(=O)(=O)c1c[nH]cn1)CC2)c1cc(N)cc(C(F)(F)F)c1 [Example 458] | – |
| < 400 | < 1000 | < 1000 | COC1(C(=O)N2Cc3nc(Cl)nc(N[C@H](C)c4cccc(C(F)(F)CO)c4)c3C2)COC1 [Example 241] | – |
| < 400 | < 1000 | < 1000 | C[C@@H](Nc1nc(Cl)nc2c1CN(C(=O)N1C[C@H]3C[C@@H]1CN3)C2)c1cccc(C(F)F)c1F [Example 406] | – |
| < 400 | < 1000 | < 1000 | C[C@@H](Nc1nc(Cl)nc2c1CN(C(=O)N1CCOc3ncccc31)C2)c1cccc(C(F)(F)F)c1 [Example 366] | – |
| < 400 | < 1000 | > 1000 | C[C@@H](Nc1nc(Cl)nc2c1CN(C(=O)N1C[C@@H]3C[C@H]1CN3)C2)c1cccc(C(F)F)c1F [Example 399] | – |
| > 400 | < 1000 | < 1000 | C[C@@H](Nc1nc(Cl)nc2c1CN(C(=O)N1CCOCC1)C2)c1cccc(C(F)(F)F)c1F [Example 496] | – |
| < 400 | < 1000 | < 1000 | COC1(C(=O)N2Cc3nc(Cl)nc(N[C@H](C)c4cccc(C(F)(F)CN)c4)c3C2)CCOCC1 [Example 525, N-[(1R)-1-[3-(2-amino-1,1-difluoroethyl)phenyl]ethyl]-2-chloro-6-(4-methoxyoxane-4-carbonyl)-5H,6H,7H-pyrrolo[3,4-d]pyrimidin-4-amine] | – |
| < 400 | < 1000 | < 1000 | C[C@@H](Nc1nc(Cl)nc2c1CN(C(=O)C1CCN(C)C1)C2)c1cc(N)cc(C(F)(F)F)c1 (stereo partly drawn) [Example 101] | – |
| > 400 | > 1000 | > 1000 | C[C@@H](Nc1nc(Cl)nc2c1CN(C(=O)c1ccc(N3CCOCC3)cn1)CC2)c1cc(N)cc(C(F)(F)F)c1 [Example 254] | – |
| < 400 | < 1000 | < 1000 | C[C@@H](Nc1nc(Cl)nc2c1CN(C(=O)N1CCNC(=O)C1)C2)c1cccc(C(F)(F)F)c1 [Example 376] | – |
| < 400 | < 1000 | < 1000 | C[C@@H](Nc1nc(CO)nc2c1CN(C(=O)N1CCOCC1)C2)c1cc(N)cc(C(F)(F)F)c1 [Example 129, (4-{[(1R)-1-[3-amino-5-(trifluoromethyl)-phenyl]ethyl]amino}-6-(morpholine-4-carbonyl)-5H,6H,7H-pyrrolo[3,4-d]pyrimidin-2-yl)methanol] | – |
| < 400 | < 1000 | < 1000 | C[C@@H](Nc1nc(Cl)nc2c1CN(C(=O)c1cccnn1)C2)c1cc(N)cc(C(F)(F)F)c1 [Example 71] | – |
| < 400 | < 1000 | < 1000 | COC1(C(=O)N2Cc3nc(Cl)nc(N[C@H](C)c4cccc(C(F)F)c4F)c3C2)CCN(C2COC2)CC1 [Example 325] | – |
| < 400 | < 1000 | < 1000 | COC1(C(=O)N2Cc3nc(CN)nc(N[C@H](C)c4cccc(C(F)(F)F)c4)c3C2)CCOCC1 [Example 350, (R)-(2-(aminomethyl)-4-((1-(3-(trifluoromethyl)phenyl)ethyl)amino)-5,7-dihydro-6H-pyrrolo[3,4-d]pyrimidin-6-yl)(4-methoxytetrahydro-2H-pyran-4-yl)methanone] | – |
| < 400 | < 1000 | < 1000 | C[C@@H](Nc1nc(Cl)nc2c1CN(C(=O)[C@@H]1C[C@H]1C#N)CC2)c1cc(N)cc(C(F)(F)F)c1 [Example 223] | – |
| < 400 | < 1000 | < 1000 | C[C@@H](Nc1nc(Cl)nc2c1CN(C(=O)N1CCCC13CCN(C)C3)C2)c1cccc(C(F)F)c1F (stereo partly drawn) [Example 413] | – |
| > 400 | > 1000 | > 1000 | CC(Nc1nc(Cl)nc2c1CN(C(=O)N1CCOCC1)C2)c1ccc(-c2ccccc2CO)s1 (stereo not drawn) [Example 53, [2-chloro-4-[1-[5-[2-(hydroxymethyl)phenyl]-2-thienyl]ethylamino]-5,7-dihydropyrrolo[3,4-d]pyrimidin-6-yl]-morpholino-methanone] | – |
| > 400 | > 1000 | > 1000 | CNc1nc2c(c(N[C@H](C)c3cccc(C(F)F)c3F)n1)CN(C(=O)N1CCOCC1)C2 [Example 505, N4-[(1R)-1-[3-(difluoromethyl)-2-fluorophenyl]ethyl]-N2-methyl-6-(morpholine-4-carbonyl)-5H,6H,7H-pyrrolo[3,4-d]pyrimidine-2,4-diamine] | – |
| < 400 | < 1000 | < 1000 | C[C@@H](Nc1nc(Cl)nc2c1CN(C(=O)[C@H]1CNCCO1)C2)c1cccc(C(F)F)c1F [Example 307] | – |
| < 400 | < 1000 | < 1000 | C[C@@H](Nc1nc(Cl)nc2c1CN(S(=O)(=O)C1CCOCC1)C2)c1cc(N)cc(C(F)(F)F)c1 [Example 51] | – |
| > 400 | > 1000 | > 1000 | C[C@@H](Nc1nc(Cl)nc2c1CN(C(=O)c1ccc(-n3ccnc3)cn1)CC2)c1cc(N)cc(C(F)(F)F)c1 [Example 250] | – |
| < 400 | < 1000 | < 1000 | C[C@@H](Nc1nc(Cl)nc2c1CN(C(=O)c1cnc[nH]1)C2)c1cc(N)cc(C(F)(F)F)c1 [Example 108] | – |

| Compound | Kd [1] [nM] | IC50 [2] [nM] | IC50 [3, 4] [nM] | IC50 ([3]; PC-9, 1 h) [nM] |
| --- | --- | --- | --- | --- |
| C[C@@H](Nc1nc(Cl)nc2c1CN(C(=O)N1C3CC1CN(C1COC1)C3)C2)c1cccc(C(F)F)c1F [Example 422] | < 400 | < 1000 | < 1000 | – |
| C[C@@H](Nc1nc(Cl)nc2c1CN(C(=O)N1CCOCC1)C2)c1cccc(C(C)(C)C#N)c1 [Example 482, 2-{3-[(1R)-1-{[2-chloro-6-(morpholine-4-carbonyl)-5H,6H,7H-pyrrolo[3,4-d]pyrimidin-4-yl]amino}ethyl]phenyl}-2-methylpropanenitrile] | > 400 | < 1000 | – | > 1000 |
| C[C@@H](Nc1nc(Cl)nc2c1CN(C(=O)N1CCOCC1)C2)c1cccc(C(F)F)c1Cl [Example 522, 2-chloro-N-[(1R)-1-[2-chloro-3-(difluoromethyl)phenyl]ethyl]-6-(morpholine-4-carbonyl)-5H,6H,7H-pyrrolo[3,4-d]pyrimidin-4-amine] | < 400 | < 1000 | – | < 1000 |
| Cc1nc2c(c(N[C@H](C)c3cc(N)cc(C(F)(F)F)c3)n1)CN(C(=O)OC1CCOCC1)C2 [Example 118, oxan-4-yl 4-{[(1R)-1-[3-amino-5-(trifluoromethyl)phenyl]ethyl]amino}-2-methyl-5H,6H,7H-pyrrolo[3,4-d]pyrimidine-6-carboxylate] | > 400 | < 1000 | – | < 1000 |
